The results in this text go back to paper PMC4558166, “Trametinib modulates cancer multidrug resistance by targeting ABCB1 transporter” (Oncotarget, 2015).

The test concerns the target ABCB1 (MDR1/P-glycoprotein) (Homo sapiens, UniProt P08183). The test can be described thus: Vi-sensitive ATPase stimulation in High Five insect cell membrane vesicles; also rhodamine […]/doxorubicin accumulation in ABCB1-overexpressing cells. It counts as biochemical.

ABCB1 (MDR1/P-glycoprotein), sequence (P08183 whole entry): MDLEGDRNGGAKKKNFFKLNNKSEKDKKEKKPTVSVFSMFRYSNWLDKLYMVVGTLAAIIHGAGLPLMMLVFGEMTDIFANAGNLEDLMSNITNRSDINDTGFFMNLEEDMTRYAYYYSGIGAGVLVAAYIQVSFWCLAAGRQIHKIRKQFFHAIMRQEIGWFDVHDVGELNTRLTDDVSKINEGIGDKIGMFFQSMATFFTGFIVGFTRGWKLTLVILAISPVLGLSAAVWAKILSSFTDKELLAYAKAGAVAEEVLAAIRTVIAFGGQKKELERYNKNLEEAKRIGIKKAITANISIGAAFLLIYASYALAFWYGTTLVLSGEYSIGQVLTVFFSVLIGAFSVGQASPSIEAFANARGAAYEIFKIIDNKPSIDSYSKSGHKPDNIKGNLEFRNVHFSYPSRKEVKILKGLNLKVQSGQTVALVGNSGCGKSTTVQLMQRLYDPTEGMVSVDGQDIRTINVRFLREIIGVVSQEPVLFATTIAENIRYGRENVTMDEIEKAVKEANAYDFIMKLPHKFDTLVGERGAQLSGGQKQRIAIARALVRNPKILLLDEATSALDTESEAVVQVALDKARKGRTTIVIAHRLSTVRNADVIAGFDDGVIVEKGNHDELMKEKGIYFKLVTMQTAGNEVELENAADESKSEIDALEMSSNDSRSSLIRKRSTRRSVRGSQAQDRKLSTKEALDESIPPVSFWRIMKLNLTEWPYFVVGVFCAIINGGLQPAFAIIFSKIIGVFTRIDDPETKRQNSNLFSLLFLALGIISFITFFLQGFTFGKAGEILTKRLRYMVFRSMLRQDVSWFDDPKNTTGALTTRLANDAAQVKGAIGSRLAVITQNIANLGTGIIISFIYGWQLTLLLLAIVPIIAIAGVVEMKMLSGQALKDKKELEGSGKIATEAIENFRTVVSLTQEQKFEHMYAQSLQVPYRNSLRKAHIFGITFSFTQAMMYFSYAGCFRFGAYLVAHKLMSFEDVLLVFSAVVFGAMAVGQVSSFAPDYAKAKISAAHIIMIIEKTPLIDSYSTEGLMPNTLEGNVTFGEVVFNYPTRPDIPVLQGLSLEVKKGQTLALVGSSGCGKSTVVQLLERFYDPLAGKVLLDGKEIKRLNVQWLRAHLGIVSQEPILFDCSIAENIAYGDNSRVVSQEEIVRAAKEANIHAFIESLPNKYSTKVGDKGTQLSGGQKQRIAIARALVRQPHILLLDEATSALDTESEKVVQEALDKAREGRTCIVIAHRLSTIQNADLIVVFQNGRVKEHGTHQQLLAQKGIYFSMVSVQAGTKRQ

For the compound `CC(=O)Nc1cccc(-n2c(=O)n(C3CC3)c(=O)c3c(Nc4ccc(I)cc4F)n(C)c(=O)c(C)c32)c1` [Trametinib], the EC50 – broadly, the concentration needed to bring the measured effect to its halfway point – is 1.02 µM.
